Experimental data as given in ChEMBL document CHEMBL1146945, “Quaternary salts of 4,3' and 4,4' bis-pyridinium monooximes. Part 2: synthesis and biological activity” (Bioorg Med Chem Lett, 2006).
The source made the active and inactive calls. No cut-off for these calls is given here.

How the values were obtained:
[1] = biological target: T1, Acetylcholinesterase (Mus musculus) (UniProt P21836); assay: Reactivation of TEPP inhibited mouse brain AChE at 30 uM; assay type: functional; parameters: scale not given: the % may be the effect or the level left
T1 sequence (whole entry): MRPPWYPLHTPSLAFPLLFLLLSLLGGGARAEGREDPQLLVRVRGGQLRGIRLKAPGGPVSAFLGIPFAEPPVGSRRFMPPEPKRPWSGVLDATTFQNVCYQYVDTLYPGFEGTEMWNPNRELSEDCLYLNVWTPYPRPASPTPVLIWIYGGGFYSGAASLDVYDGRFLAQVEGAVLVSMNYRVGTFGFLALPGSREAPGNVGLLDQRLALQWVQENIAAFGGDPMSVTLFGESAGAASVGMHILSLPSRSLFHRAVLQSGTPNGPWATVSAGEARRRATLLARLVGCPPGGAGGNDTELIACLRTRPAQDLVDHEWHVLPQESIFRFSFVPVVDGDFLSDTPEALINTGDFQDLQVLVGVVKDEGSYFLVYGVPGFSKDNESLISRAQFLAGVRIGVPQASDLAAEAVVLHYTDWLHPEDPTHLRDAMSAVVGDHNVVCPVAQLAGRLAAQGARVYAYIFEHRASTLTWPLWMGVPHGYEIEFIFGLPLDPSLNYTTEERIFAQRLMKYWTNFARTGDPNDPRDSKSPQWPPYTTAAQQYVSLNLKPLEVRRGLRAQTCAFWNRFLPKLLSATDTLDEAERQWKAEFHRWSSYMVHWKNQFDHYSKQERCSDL

[2] = biological target: T1, Acetylcholinesterase (Mus musculus); assay: Potentiation of inhibition of AChE by TEPP in mouse brain at 300 uM; assay type: functional, tissue-based
[3] = biological target: T1, Acetylcholinesterase (Mus musculus); assay: Potentiation of inhibition of AChE by TEPP in mouse brain at 100 uM; assay type: functional, tissue-based
[4] = biological target: T1, Acetylcholinesterase (Mus musculus); assay: Reactivation of TEPP inhibited AChE in mouse brain at 100 uM; assay type: functional, tissue-based; parameters: scale not given: the % may be the effect or the level left
[5] = biological target: T1, Acetylcholinesterase (Mus musculus); assay: Reactivation of TEPP inhibited AChE in mouse brain at 200 uM; assay type: functional, tissue-based
[6] = biological target: T1, Acetylcholinesterase (Mus musculus); assay: Reactivation of TEPP inhibited AChE in mouse brain at 300 uM; assay type: functional, tissue-based
[7] = biological target: T1, Acetylcholinesterase (Mus musculus); assay: Reactivation of TEPP inhibited AChE in mouse brain at 250 uM; assay type: functional, tissue-based
[8] = biological target: T1, Acetylcholinesterase (Mus musculus); assay: Reactivation of TEPP inhibited AChE in mouse brain at 50 uM; assay type: functional, tissue-based
[9] = biological target: T1, Acetylcholinesterase (Mus musculus); assay: Reactivation of TEPP inhibited AChE in mouse brain at 150 uM; assay type: functional, tissue-based

| SMILES | Activity [1] | Activity [2] | Activity [3] | Activity [4] | Activity [5] | Activity [6] | Activity [7] | Activity [8] | Activity [9] |
| --- | --- | --- | --- | --- | --- | --- | --- | --- | --- |
| NC(=O)c1ccc[n+](CCCCCCC[n+]2ccc(/C=N/O)cc2)c1 | 23% | Active | Active |  |  |  |  |  |  |
| O/N=C/c1cc[n+](CCCCCCCCC[n+]2ccc(/C=N/O)cc2)cc1 |  |  |  | inactive | inactive | inactive | inactive | inactive | inactive |
| O/N=C/c1cc[n+](CCCCCCC[n+]2ccc(/C=N/O)cc2)cc1 | 39% | Active |  | 14% |  |  |  |  |  |
| NC(=O)c1cc[n+](CCCCCCCCC[n+]2ccc(/C=N/O)cc2)cc1 |  |  |  | inactive | inactive | inactive | inactive | inactive | inactive |
| NC(=O)c1cc[n+](CCCCCCCC[n+]2ccc(/C=N/O)cc2)cc1 |  |  |  | inactive | inactive | inactive | inactive | inactive | inactive |
| NC(=O)c1ccc[n+](CCCCCCCCC[n+]2ccc(/C=N/O)cc2)c1 |  |  |  | inactive | inactive | inactive | inactive | inactive | inactive |
| NC(=O)c1cc[n+](CCCCCCC[n+]2ccc(/C=N/O)cc2)cc1 | 15% | Active | Active |  |  |  |  |  |  |
| O/N=C/c1cc[n+](CCCCCCCC[n+]2ccc(/C=N/O)cc2)cc1 |  |  |  | inactive | inactive | inactive | inactive | inactive | inactive |
| NC(=O)c1ccc[n+](CCCCCCCC[n+]2ccc(/C=N/O)cc2)c1 |  |  |  | inactive | inactive | inactive | inactive | inactive | inactive |
